Source: the CheMixHub ionic liquid set
Several values for one entry are separate records, joined by “and”; a condition that tells them apart may be missing. Identical values can stand only once.

Test: xn = mol fraction of the nth substance listed

CCC[N+]1(C)CCCCC1.[Br-] + O + CCCC[N+]1(C)CCCCC1.[Br-]
101 kPa
Settings | viscosity [mPa·s]
298.15 K, x1 = 0.00449, x3 = 0.004485 | 1.305
298.15 K, x2 = 0.9578, x1 = 0.01421 | 2.565
303.15 K, x1 = 0.00449, x3 = 0.004485 | 1.135
303.15 K, x2 = 0.9577, x1 = 0.02117 | 2.165
303.15 K, x2 = 0.9734, x1 = 0.00893 | 1.615
308.15 K, x2 = 0.9733, x1 = 0.01334 | 1.355

CCO + CCCCCCCCCCCCCCCC[N+](C)(C)C.[Br-] + O
Settings | electrical conductivity [S/m]
298.2 K, 101.3 kPa, x2 = 0, x1 = 0.05064 | 0.00019

CCCC[N+](CCCC)(CCCC)Cc1ccccc1.[Cl-] + O
electrical conductivity [S/m], frequency 0.001 MHz
Settings | 293.15 K | 298.15 K | 303.15 K | 308.15 K | 313.15 K | 318.15 K
100 kPa, x1 = 1.802e-05 | 0.0056 | 0.0105 | 0.0171 | 0.0235 | 0.0329 | –
100 kPa, x1 = 5.406e-05 | 0.0129 | 0.0203 | 0.0243 | 0.0288 | 0.0396 | –
100 kPa, x1 = 9.009e-05 | 0.0172 | 0.0255 | 0.0327 | 0.0349 | 0.0468 | –
101.3 kPa, x1 = 1.802e-05 | – | 0.0104 | – | 0.0139 | – | 0.0173
101.3 kPa, x1 = 5.406e-05 | – | 0.0231 | – | 0.0284 | – | 0.0345
101.3 kPa, x1 = 9.009e-05 | – | 0.0367 | – | 0.0457 | – | 0.0546

viscosity [mPa·s]
Settings | 293.15 K | 298.15 K | 303.15 K | 308.15 K | 318.15 K
100 kPa, x1 = 1.802e-05 | 0.953 | 0.913 | 0.876 | – | –
100 kPa, x1 = 5.406e-05 | 0.961 | 0.921 | 0.88 | – | –
100 kPa, x1 = 9.009e-05 | 0.972 | 0.93 | – | – | –
101.3 kPa, x1 = 1.802e-05 | – | 0.906 | – | 0.775 | 0.643
101.3 kPa, x1 = 5.406e-05 | – | 0.923 | – | 0.793 | 0.659
101.3 kPa, x1 = 9.009e-05 | – | 0.942 | – | – | –

CCO + CC(=O)[O-].CC[n+]1ccn(C)c1
101 kPa, x1 = 1
Settings | viscosity [mPa·s]
318.15 K | 0.755
338.15 K | 0.543

CCCCCCCC[N+](CC)(CC)CC.O=S(=O)([N-]S(=O)(=O)C(F)(F)F)C(F)(F)F + O
101 kPa, x2 = 0.1435
Settings | viscosity
318.05 K | 36.51 mPa·s and 55.8 mPa·s
323.05 K | 29.74 mPa·s

CCCC[N+](CCCC)(CCCC)Cc1ccccc1.[Cl-] + O=C([O-])C1=NN(c2ccc(S(=O)(=O)[O-])cc2)C(=O)C1N=Nc1ccc(S(=O)(=O)[O-])cc1.[Na+].[Na+].[Na+] + O
electrical conductivity [S/m], 101.3 kPa, frequency 0.001 MHz
Settings | 298.15 K | 308.15 K | 318.15 K
x2 = 0, x1 = 1.802e-05 | 0.0104 | 0.0139 | 0.0173
x2 = 0, x1 = 5.406e-05 | 0.0231 | 0.0284 | 0.0345
x2 = 0, x1 = 9.009e-05 | 0.0367 | 0.0457 | 0.0546

viscosity [mPa·s], 101.3 kPa
Settings | 298.15 K | 308.15 K | 318.15 K
x2 = 0, x1 = 1.802e-05 | 0.906 | 0.775 | 0.643
x2 = 0, x1 = 5.406e-05 | 0.923 | 0.793 | 0.659
x2 = 0, x1 = 9.009e-05 | 0.942 | – | –

CCO + CC[n+]1ccn(C)c1.COS(=O)(=O)[O-]
101 kPa, x2 = 0
Settings | viscosity [mPa·s]
283.15 K | 1.44
293.15 K | 1.18
303.15 K | 0.98
313.15 K | 0.83
323.15 K | 0.7

CCO + CC[n+]1ccn(CCOC)c1.O=S(=O)([N-]S(=O)(=O)C(F)(F)F)C(F)(F)F
100 kPa, x2 = 0
Settings | viscosity [mPa·s]
288.15 K | 1.334
293.15 K | 1.202
298.15 K | 1.111
303.15 K | 1.003
308.15 K | 0.907
313.15 K | 0.83
318.15 K | 0.76

CCCCCC[n+]1ccn(C)c1C.O=S(=O)([N-]S(=O)(=O)C(F)(F)F)C(F)(F)F + COCCOCCOCCOCCOC
viscosity [mPa·s], 100 kPa
Settings | 293.15 K | 298.15 K | 308.15 K
x2 = 0 | – | 129 | –
x2 = 0.102 | 135 | 103 | 64
x2 = 0.306 | 66 | 51 | –

Cc1ncc(CO)c(CO)c1O.Cl + CCCC[n+]1ccn(C)c1.[Br-] + O
viscosity [mPa·s], 100 kPa
Settings | x1 = 0.0002684, x2 = 0 | x1 = 0.0005421, x2 = 0 | x1 = 0.0008084, x2 = 0 | x1 = 0.001085, x2 = 0 | x1 = 0.001353, x2 = 0 | x1 = 0.001621, x2 = 0
293.15 K | 1.007 | 1.012 | 1.017 | 1.022 | 1.027 | 1.032
298.15 K | 0.895 | 0.9 | 0.905 | 0.91 | 0.915 | 0.921
303.15 K | 0.801 | 0.806 | 0.811 | 0.816 | 0.821 | 0.826
308.15 K | 0.722 | 0.727 | 0.732 | 0.737 | 0.741 | 0.747
313.15 K | 0.657 | 0.662 | 0.667 | 0.671 | 0.676 | 0.681

CCCC[N+]1(C)CCCCC1.[Br-] + O + CC[N+]1(C)CCCCC1.[Br-]
101 kPa
Settings | viscosity [mPa·s]
293.15 K, x2 = 0.9577, x3 = 0.02117 | 2.805
293.15 K, x3 = 0.005974, x1 = 0.002995 | 1.365
298.15 K, x2 = 0.9734, x3 = 0.00893 | 1.815
308.15 K, x2 = 0.9578, x3 = 0.0142 | 1.845
